One data set deals with AA (aurora kinase A) (Homo sapiens (Human), UniProt O14965). The data set is described as follows: AA kinase inhibition (Table 1). In kind it is biochemical. The following applies: Table 2; read-out: AurA IC50.
Data set [1] is described as follows: Pharmacokinetics in fasted conscious CD-1 mice (iv and oral). It is filed as in vivo. The following applies: compared to compounds A-G. On the procedure:
Preliminary investigations of the pharmacokinetics of selected compounds were carried out in fasted conscious CD-1 mice (25-30 g). Compounds were dosed as 1 mg/kg by intravenous administration or 5-10 mg/kg by oral route. Twenty one male mice per administration route (n=3 mice per time point) received dose solution by single bolus injection in the tail vein or by oral gavage. Blood samples were collected by cardiac puncture at 5, 15, 30, 60, 120, 240 and 360 min following iv administration and at 30, 60, 120, 240, 360, 480 and 1440 min following oral administration. Blood samples were collected into tubes containing the anti-coagulant lithium heparin, mixed and placed promptly on crushed ice. Plasma was derived from whole blood by centrifugation, frozen and stored at −80° C. prior to analysis. Plasma concentrations were determined by liquid chromatography-tandem mass spectrometry in electrospray positive mode (ESI LC/MS/MS) using calibration curves prepared in the appropriate matrix. The lower level of quantification (LLOQ) in all cases was ca. 5 ng/mL. Plasma concentration-time data was processed using the computer program WinNonLin version 5.2 from which areas under the plasma concentration-time curve (AUCall) were calculated by non-compartmental analysis using Model 201 (IV-bolus Input) or Model 200 (Extravascular Input).
FIG. 1 plots the area under the curve (AUC) for plasma concentration vs time for each compound tested. The dosing vehicle across these experiments remained constant (intravenous=citrate buffer pH 3, 1 mL/kg; oral=DMA/PEG400/10 mM Tartrate buffer, pH 4 (1:3:6), 5 ml/kg). FIG. 2 represents the same data in the form of oral bioavailability (% F) for each compound.

For a further data set, the system named is A2780/ADR cells. The data set is described as follows: Cell viability assay (Alamar Blue, 72 hours), MDR line. The following applies: paired parental and MDR tumour cell lines (A2780-A2780/ADR, MES-SA-MES-SA/Dx5). In kind it is cell-based, human. From the text:
In vitro cell viability assays have been used to measure the effect of drug accumulation in paired parental and drug resistant tumour cell lines. The pairs used are the human ovarian carcinoma A2780 line with its MDR counterpart A2780/ADR and the human uterine sarcoma MES-SA line with its MDR counterpart MES-SA/Dx5 [Wesolowska O., et al. (2005) Anticancer Res., 25, 383-389].
Method: Cultivated human tumour cells of the ovarian cell line A2780 and its doxorubicin-resistant pair, A2780/ADR and the uterine cell line MES-SA and its doxorubicin-resistant pair, MES-SA/DX5 were seeded at 3000 cells per well in Nunc 96-well tissue culture plates, 100 μl per well in DMEM media containing 10% foetal calf serum and penicillin/streptomycin. […] The plates were then read at 544/595 nm.
The amount of Alamar Blue reagent reacted represents the metabolic activity of the cells. […] The values were calculated from the average of three individual measurements with blank correction (medium-only control).
The assay was performed on the Biomek FxP, automation platform from Beckman Coulter. The plates were read on the Paradigm plate reader supplied by Beckman Coulter. Asymmetry ratios were calculated as the IC50 value of the compound in the drug resistant cells divided by the IC50 value in the parental cells. […]
A general note: Resazurin is reduced to fluorescent resorufin, in cell work by metabolically active cells.

AA (aurora kinase A), sequence (O14965 whole entry, species assumed): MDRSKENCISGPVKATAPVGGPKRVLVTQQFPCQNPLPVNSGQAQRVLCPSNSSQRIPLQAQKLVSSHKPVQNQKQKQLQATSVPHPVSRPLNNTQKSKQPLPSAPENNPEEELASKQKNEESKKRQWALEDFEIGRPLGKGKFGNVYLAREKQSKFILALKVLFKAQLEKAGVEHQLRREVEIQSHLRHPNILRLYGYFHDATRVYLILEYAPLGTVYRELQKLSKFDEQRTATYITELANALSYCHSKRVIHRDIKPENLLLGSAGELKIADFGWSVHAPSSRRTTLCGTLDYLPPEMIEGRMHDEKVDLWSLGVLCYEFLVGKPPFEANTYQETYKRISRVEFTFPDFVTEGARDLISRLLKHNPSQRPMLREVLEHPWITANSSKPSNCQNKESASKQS

For `CN1C(=O)CCN(C2CCCC2)c2nc(Nc3cccc4cc[nH]c34)ncc21` [Compound 98, 9-Cyclopentyl-2-(1H-indol-7-ylamino)-5-methyl-5,7,8,9-tetra-hydro-pyrimido[4,5-b] [1,4]diazepin-6-one], at AA (aurora kinase A), the IC50 – broadly, the concentration that gives 50% inhibition – was under 1 µM.

Regarding `COc1cc(C(=O)N[C@H]2CC[C@H](N3CCN(CC4CC4)CC3)CC2)ccc1Nc1ncc2c(n1)N(C1CCCC1)CC1(CC1)C(=O)N2C` [Compound 371, 4-(9′-cyclopentyl-5′-methyl-6′-oxo-5′,6′,8′,9′-tetrahydrospiro[cyclopropane-1,7′-pyrimido[4,5-b][1,4]diazepine]-2′-ylamino)-N-((trans)-4-(4-(cyclopropylmethyl)piperazin-1-yl)cyclohexyl)-3-methoxybenzamide], the “oral bioavailability (% F)” value in data set [1] is recorded as “markedly superior”. Moreover, the “systemic exposure (AUC of plasma concentration vs time)” value in data set [1] (iv 1 mg/kg and oral 5-10 mg/kg) is “markedly superior”. For the same compound, in the data set with A2780/ADR cells, the “cellular efflux (MDR/parental cell asymmetry)” value is listed as “low cellular efflux”.

Regarding `CN1C(=O)CCN2CCC(=O)Nc3cccc(c3)Nc3ncc1c2n3` [Compound 282], the IC50 on AA (aurora kinase A) is under 10 µM.

(Values after patent US9133199B2, “Pyrimidine derivatives as protein kinase inhibitors” (Cyclacel Limited, priority 2007, dated 2015).)
